# Test results taken from US20090197934A1, “IMIDAZOLINYLMETHYL ARYL SULFONAMIDE” (priority 2008, published 2009).
# Assays:
# alpha-1A adrenoceptors = target: T1, alpha-1A adrenoceptors (Homo sapiens, UniProt P35348); experiment: alpha-1A adrenoceptor partial agonist activity (intrinsic activity and pEC50); assay type: cell-based
# T1 sequence (P35348 1-466): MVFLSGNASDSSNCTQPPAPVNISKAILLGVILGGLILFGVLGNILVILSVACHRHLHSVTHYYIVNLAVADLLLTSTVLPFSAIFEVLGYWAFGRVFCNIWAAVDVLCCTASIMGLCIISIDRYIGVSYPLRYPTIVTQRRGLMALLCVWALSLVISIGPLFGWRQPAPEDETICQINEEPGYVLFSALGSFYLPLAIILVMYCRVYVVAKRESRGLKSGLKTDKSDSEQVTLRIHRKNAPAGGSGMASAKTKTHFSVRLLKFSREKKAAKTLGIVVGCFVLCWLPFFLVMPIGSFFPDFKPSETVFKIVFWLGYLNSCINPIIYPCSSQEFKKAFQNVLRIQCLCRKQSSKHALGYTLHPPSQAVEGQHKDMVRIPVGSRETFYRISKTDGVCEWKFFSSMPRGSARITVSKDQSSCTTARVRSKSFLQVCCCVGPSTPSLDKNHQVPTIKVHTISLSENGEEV
# [1] = system: Female Yucatan Micro-Swine; experiment: Conscious Pig Model (IUP, MAP and HR during iv infusion); assay type: in vivo
# Method: In general, IUP is the intraurethral pressure and is measured as the 2 minute mean from the first peak of the urethral response (FIG. 1). MAP is the mean arterial blood pressure and is measured as the average blood pressure during the 2 minute section where IUP is measured. The durability is the slope of the IUP response in mmHg/min and is calculated immediately after the 2 minute IUP response for 5 minutes (2-7 minutes post the first peak) for the top 3 doses.
# Sling Training: Female Yucatan Micro-Swine were trained to stay in a sling for up to 4 hours. Swine were exposed to progressively longer sling durations per IACUC sling-training guideline.
# Surgical Instrumentation: Female Yucatan Micro-swine were instrumented with a telemetry device with both pressure and ECG monitoring capabilities (Data Sciences International St Paul Minn.). In addition, a Bardport low profile titanium VAP was placed subcutanteously for blood sampling. All devices were implanted by the surgical veterinarian at Roche Palo Alto. Briefly, the telemetry probe body was placed subcutaneously in the cervical region. The intra-arterial pressure catheter was advanced via the superficial cervical artery into the subclavian artery for blood pressure measurement. The ECG leads were placed intra-muscularly: one in the intercostal muscle between the T8-T10 regions on the left side, and the other in the intercostal muscles between the T1-T3 regions on the right side. The VAP was placed subcutaneously in the neck region, with the catheter advanced into the jugular vein. Swine were allowed to fully recover from the surgery (typically 10 days). […]
# Experiment: After the swine was fully awake and stable (usually approximately 1 hour post wake up), baseline blood pressure, IUP, and heart rate parameters were determined. […]
# Data Generating and Analysis Systems: Cardiovascular readings were generated by the TL11M3-D70-PCP (Data Sciences International, St. Paul, Minn.) telemetry device and associated hardware. […] IUP was monitored by a solid state catheter connected to a TA6000 Polygraph (Data Sciences International, St. Paul, Minn.). […]
compound,measurement,setting,value
"CS(=O)(=O)Nc1cc(F)c(CC2=NCCN2)c(Br)c1Cl [Formula I, N-[3-Bromo-2-chloro-4-(4,5-dihydro-1H-imidazol-2-ylmethyl)-5-fluoro-phenyl]-methanesulfonamide]","intrinsic activity, or efficacy, as a partial agonist",alpha-1A adrenoceptors; ideally between 0.35 to 0.60,0.45
same,EC50,"alpha-1A adrenoceptors; read-out: affinity, or pEC50 value (converted)",316 nM
same,maximum arterial blood pressure effect,[1],low
same,selectivity for enhancement of intraurethral pressure (IUP) over blood pressure (MAP),[1],selectivity for enhancement of intraurethral pressure (IUP) over blood pressure (MAP)
same,durability of IUP response over time,[1]; compared to analogue compound lacking the 3-bromo and 5-fluoro substituents (FIG. 1b vs FIG. 1c),unexpectedly increased durability of IUP response over time
